Values joined by “and” are separate entries in the source; they are usually repeats but may differ in a detail not shown here. Equal values may be shown once.
How the values were obtained:
[1] = parameters: method as in Moncada et al., 1976; conditions: pH 7.4; degradation to 6-oxo-PGF1a; ref Moncada et al., 1976; cited from earlier work
[2] = target: T1, prostaglandin I2 (prostacyclin, PGI2) binding sites (Homo sapiens, UniProt P43119); assay: [3H]iloprost saturation binding (vacuum filtration, Scatchard analysis) on less differentiated and anaplastic thyroid cancer membrane fraction
T1 sequence (P43119 1-383): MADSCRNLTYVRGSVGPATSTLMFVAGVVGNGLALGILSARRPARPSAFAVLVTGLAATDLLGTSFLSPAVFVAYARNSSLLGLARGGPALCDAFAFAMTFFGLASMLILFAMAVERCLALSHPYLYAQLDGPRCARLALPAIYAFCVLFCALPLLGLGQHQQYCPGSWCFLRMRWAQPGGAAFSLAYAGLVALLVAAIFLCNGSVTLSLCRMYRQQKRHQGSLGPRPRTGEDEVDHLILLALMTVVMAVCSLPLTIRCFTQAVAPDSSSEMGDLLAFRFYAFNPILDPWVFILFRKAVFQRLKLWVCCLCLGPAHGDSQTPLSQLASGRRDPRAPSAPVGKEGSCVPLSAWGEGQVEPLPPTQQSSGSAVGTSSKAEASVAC
Method: (§1) For comparative studies saturation experi- ments were performed. […] Values are given as x +s.d. Student's t-test was employed for paired data. […] Each point represents the average of 6 separate experiments. […] Each point represents the average of 5 separate determinations.

[3] = target: T1, prostaglandin I2 (prostacyclin, PGI2) binding sites; assay: [3H]iloprost saturation binding (vacuum filtration, Scatchard analysis) on benign solitary thyroid adenoma membrane fraction
[4] = target: prostaglandin I2 (prostacyclin, PGI2) binding sites; assay: [3H]iloprost saturation binding (vacuum filtration, Scatchard analysis) on normal thyroid membrane fraction; parameters: species or system human; conditions: normal thyroid tissue, 4 C, 40 min, mean +/- s.d.; read-out: equilibrium dissociation constant (Kd), low affinity binding sites
Method: as §1

[5] = target: T1, prostaglandin I2 (prostacyclin, PGI2) binding sites; assay: as above
Method: as §1

[6] = target: T1, prostaglandin I2 (prostacyclin, PGI2) binding sites; assay: [3H]iloprost saturation binding (vacuum filtration, Scatchard analysis) on well differentiated thyroid cancer membrane fraction
Method: as §1

Row | SMILES | stability in aqueous medium [1] | Bmax [2] | Bmax, high affinity binding sites [2] | diminution of [3H]iloprost high affinity binding sites [2] [%] | Bmax, high affinity binding sites [3] | Kd [4] [nM] | binding capacity (Bmax), high affinity binding sites [5] | Bmax [6] | Bmax, high affinity binding sites [6]
1 | CCCCC[C@H](O)/C=C/[C@@H]1[C@H]2C/C(=C/CCCC(=O)O)O[C@H]2C[C@H]1O [PGI2, prostaglandin I2] | rapid hydrolysis |  |  |  |  |  |  |  | 
2 | CC#CCC(C)[C@H](O)/C=C/[C@@H]1[C@H]2C/C(=C/CCCC(=O)O)C[C@H]2C[C@H]1O (stereo partly drawn) [[3H]iloprost, iloprost] |  | 218.1 fmol mg- 1 protein and 176.0 fmol mg- 1 protein and 153.2 fmol mg- 1 protein and 165.3 fmol mg- 1 protein and 190.6 fmol mg- 1 protein | 180.6 ± 25.1 | ~70 | 325.8 ± 110.0 | 132 | 613.2 ± 130.4 | 328.9 fmol mg- 1 protein and 359.2 fmol mg- 1 protein and 253.6 fmol mg- 1 protein and 255.5 fmol mg- 1 protein and 301.2 fmol mg- 1 protein | 299.7 ± 46.0
